# Tested on: mTOR signaling
# Experiment: Immunoblot and cap-complex analysis of mTOR signaling (S6K1, S6, 4E-BP1, GSK-3) in MEFs
# Type: cell-based, mouse
# Procedure: FIG. 6A: Subconfluent cycling littermate-matched primary MEFs of the indicated genotype were left untreated (NT) or were treated with 2 mM AICAR for 2 h. Total cell extracts were immunoblotted for phospho-Thr172 AMPK (P-AMPK), phospho Ser79 ACC (P-ACC), phospho-Thr389 S6K1 (P-S6K1), phospho-Ser9 GSK-3b (P-GSK-3), and phospho-Ser235/236 S6 ribosomal protein (P-S6). FIG. 6B: An immortalized LKB1−/− MEF cell line was reconstituted with vector (v), wild-type (wt) or kinase-dead (kd) human LKB1-expressing retroviruses. Cells were treated as in FIG. 6A. eIF4E was used as a loading control. *represents a cross-reactive band with the anti-LKB1 antisera as characterized previously (Shaw et al. (2004) Proc. Natl. Acad. Sci. USA 101, 3329-3335). FIG. 6C: Endogenous 5′ cap complexes were isolated from LKB1 primary MEFs as in A. 10% of the total cell lysate is shown in the left panels; cap complexes purified on 7-methyl sepharose are shown in right panels. Each were immunoblotted with total 4E-BP1 and eIF4E antibodies. eIF4E is shown as a loading control. FIG. 6D: Hela cells (which are LKB1-deficient) were transiently transfected with vector, FLAG-tagged wild-type, or kinase-dead LKB1 along with an HA-tagged S6K1 or an HA-tagged 4E-BP1 construct, then treated where indicated with 2 mM AICAR for 2 h. S6K1-immunoprecipitates were immunoblotted for activating phosphorylation of S6K1 as before, as well with anti-HA to control for levels. Lysates were immunoblotted with anti-FLAG to detect levels of LKB1 and with anti-HA to detect phosphorylation induced changes in 4E-BP1 mobility on SDS-PAGE.
# FIGS. 8A and 8B: Littermate matched LKB1- or TSC2-deficient MEFs were compared to wild-type MEFs in their response to a number of stress stimuli known to inhibit mTOR signaling (wild-type cells denoted +, −/− cells simply−). mTOR signaling was examined by immunoblotting for phospho-S6 as in FIG. 6. Activation of Akt and Erk were examined using their specific activation state phospho-specific antibodies (Ser473 for Akt, Thr202/Tyr204 for Erk). As before, eIF4E is used as a loading control. All MEFs were serum-deprived in DMEM alone for 24 h. Indicated samples were then placed in fresh media containing 10% serum, with or without […] rapamycin or 2 mM AICAR, all for 90 min. Amino acid deprivation (-AA) was performed by placing the serum-starved cells into D-PBS with 10% dialyzed serum for 90 min. […] Cells were placed in normal media, glucose free media with 10% dialyzed serum, or glucose-free media with 10% dialyzed serum containing 20 nM rapamycin for 6 or 24 h as indicated. LKB1 genotype indicated at bottom. eIF4E is used as a loading control. FIG. 8D: Cells were treated for 24 h as in FIG. 8C, and viability was quantified by MTT assays performed in triplicate on cells of the indicated genotypes. Cell death is expressed as a percentage of the untreated controls.
# Cells were cultured and retrovirally infected as previously described (Shaw et al. (2004), Proc. Natl. Acad. Sci. USA 101:3329-3335). […] Cells were serum-starved in DMEM without serum 14 h post-transfection, then 8 h later the media was replaced with fresh DMEM with 10% FBS or DMEM with 10% FBS and 2 mM AICAR. For the MEF experiments in FIG. 6: cells were plated at 1×10^6 cells/10 cm dish, then the next day the media was replaced with fresh DMEM with 10% FBS or DMEM with 10% FBS and 2 mM AICAR. For the MEF experiments in FIG. 8A,B: 1×10^6 cells of each genotype were plated and the next day serum-starved for 24 h. Cells were either lysed as such or their media replaced with fresh DMEM with 10% FBS, DMEM with 10% FBS and 2 mM AICAR, DMEM with 10% FBS and 20 nM rapamycin, or D-PBS with 10% dialyzed FBS for 90 mins.
compound,measurement,setting,value
"NC(=O)c1ncn([C@@H]2O[C@H](CO)[C@@H](O)[C@H]2O)c1N [AICAR, 5-aminoimidazole-4-carboxamide 1-β-D-ribofuranoside]",S6K1 activity,"Lkb1-/- MEFs, serum-starved 24 h, 10% serum with 2 mM AICAR for 90 min",failed to down-regulate S6K1 activity
same,hypophosphorylated 4E-BP1 in total cell lysates,"Lkb1-deficient cells, AICAR treatment",near absence of hypophosphorylated 4E-BP1
same,levels of active S6K1,"Lkb1-deficient fibroblasts, 2 mM AICAR for 2 h",remained high
same,growth factor signaling to GSK-3,"MEFs, 2 mM AICAR for 2 h",unaffected
same,S6K1 activity,"wild-type MEFs, 2 mM AICAR for 2 h",inhibited
same,level of hypophosphorylated 4E-BP1,"wild-type MEFs, AICAR treatment",significantly increases
same,4E-BP1 association with the cap complex,"wild-type MEFs, AICAR treatment, 7-methyl GTP sepharose",increased 4E-BP1 association with the cap complex

# Reference: patent US20120122991A1, “METHOD FOR TREATING CANCER BY INCREASING AMP-ACTIVATED KINASE ACTIVITY” (Dana-Farber Cancer Institute, Inc., priority 2003, published 2012)
